Measurements taken from patent US11135319B2, “Compounds useful as imaging agents of hypoxia” (CENTRE NATIONAL DE LA RECHERCHE SCIENTIFIQUE, priority 2017, dated 2021).

Assays:
[1] = Determination of the partition coefficient (n-octanol/H2O, radioactivity counting); type: physicochemical; settings: ambient temperature, average of three measurements, read-out: Log P value
Experimental: Determination of the partition coefficient:
n-Octanol (1 mL) and H2O (1 mL) were mixed for 20 min at ambient temperature before adding 10 μL of radioactively labeled compound. The tube was vigorously agitated by a vortex mixer for 30 min at ambient temperature. Three aliquots of 100 μL were collected from each phase and counted in a Packard Cobra Gamma counter. Log P was calculated as follows: log P=log (concentration of radioactivity in the n-octanol phase/concentration of radioactivity in the aqueous phase). The values provided are an average of the three measurements carried out.

[2] = system: rhabdomyosarcoma tumor (hypoxia); assay: In vivo PET (TEP) imaging of hypoxia in the animal rhabdomyosarcoma model; settings: for SUVMax (average) / SUVMean (average): tumor to muscle
Experimental: The evaluations of the radio-tracers were carried out in the animal rhabdomyosarcoma model provided by Biomedical Magnetic Resonance Research Group (REMA)—Catholic University of Louvain (UCL)—Belgium according to Peeters et al. (Int J Radiat Oncol, 2015) in the comparative study of [^18F]HX-4, [^18F]FMISO and [^18F]FAZA. The in vivo imaging was carried out using an Inveon μTEP/μTDM camera (Siemens). The animals were handled under gaseous anesthesia using isoflurane (induction at 5%, maintenance between 1.5% and 2.5% in 70% N2O/30% O2). The body temperature of the animals was maintained above 37.5° C. while the rate of respiration was constantly monitored, in order to obtain stable anesthesia reproducible from one animal to another. A catheter was placed without surgery (Insight Autoguard 24 Ga) at the caudal vein in order to allow the administration of radio-tracers. TDM acquisition is systematically performed prior to TEP imaging and is used for corrections of attenuation and diffusion of photos as well as for obtaining anatomical data. Acquisitions and reconstructions were performed with a coincidence time of 3.4 ns, an energy window of 350 to 650 keV, the OSEM3D-MAP reconstruction algorithm (respectively 2 and 18 iterations) with the “fastMAP” option, uniform variance and a required resolution of 2.26 mm. 128×128×159 pixels per image, with a voxel size of 0.776×0.776×0.796 mm^3. The images were normalized in SUV (Standardized Uptake Value) and analyzed with the PMOD (3.6 PMODTechnologies) software, by manual delimitation of the volumes of interest (VOIs) “entire tumor” and “muscle” and simultaneously using the 2 imaging modes.
The animals were imaged for 180 consecutive minutes starting with the injection of the radiotracer [^18F]AEL-3156 (23±3 MBq) or [^18F]FMISO (18±3 MBq) coinciding with the beginning of TEP acquisition. The 180 min post-injection time is known to be optimal for this animal model, for obtaining imaging of hypoxia with TEP tracers such as [^18F]FMISO and [^18F]HX4. After TEP imaging and before waking, the animals systematically received an intraperitoneal injection of saline solution (2 mL) in order to rehydrate them.

Structure (SMILES)	logP at 30 min [1]	SUVMax (average) ([2]; 20-30 min of acquisition)	SUVMean (average) ([2]; 20-30 min of acquisition)	SUVMax (average) ([2]; 40-60 min of acquisition)	SUVMean (average) ([2]; 40-60 min of acquisition)	SUVMax (average) ([2]; 160-180 min of acquisition)	SUVMean (average) ([2]; 160-180 min of acquisition)	tumor to muscle ratio in SUVmax ([2]; at 20-30 min of acquisition)	tumor to muscle ratio in SUVmean ([2]; at 20-30 min of acquisition)	time for which the optimal tumor to muscle ratio remains constant ([2]; post-injection)	tumor to muscle ratio, times lower than [^18F]AEL-3156 ([2]; at 20-30 min of acquisition)	time after which the optimal tumor to muscle ratio is achieved ([2]; of acquisition)
O=[N+]([O-])c1nccn1Cn1cc(CC(CCC[18F])S(=O)(=O)O)nn1 (centres unmarked) [[^18F]AEL-3156]	-2.9	5.20	2.94	5.10	2.93	2.90	1.51	5	3	at least 60 min	–	–
O=[N+]([O-])c1nccn1CC(O)C[18F] (centres unmarked) [[^18F]FMISO]	–	2.04	1.00	3.64	1.45	5.42	3.42	1.7	1	–	3 times	180 min
